Assay results from patent US11913003B2, “Method for improving soybean transformation efficiency” (BEIJING DABEINONG BIOTECHNOLOGY CO., LTD., priority 2017, dated 2024).

Test system: soybean meristem blocks
Experiment: Agrobacterium-mediated soybean transformation (SULE selective marker) with screening by external (dropwise) application of tribenuron methyl; positive plants verified by TaqMan
Type: cell-based, Glycine max
Description: Screening of soybean meristem block: After the recovery period, the meristem block was transferred to 60 ml of a proliferation medium without a selective agent (tribenuron methyl) (B5 salt 3.1 g/L, B5 vitamin, MES 1 g/L, sucrose 30 g/L, 6-BAP 1 mg/L, agar 8 g/L, cephalosporin 150 mg/L, glutamic acid 100 mg/L, aspartic acid 100 mg/L, pH 5.6), so that the soybean meristem block grew rapidly, and the screening and culturing was carried out for 5-9 days, preferably 7 days, under the conditions of a temperature of 24° C. and a photoperiod (light/dark) of 16:8. After the above soybean meristem block was proliferated for 5-9 days, tribenuron methyl herbicide (95% tribenuron methyl wettable powder) was externally applied in concentration of 1, 3, 5 and 7 μg to per ml of the proliferation medium, respectively, in which the diluted tribenuron methyl herbicide solution was added to the proliferation medium to cause selective growth of the transformed cells, and the screening and culturing was carried out at a temperature of 24° C. and a photoperiod (light/dark) of 16:8 for 2 weeks.
Regeneration of plant from resistant soybean tissue block: The resistant tissue blocks after the above screening treatment with four concentrations of tribenuron methyl were separately taken out from the proliferation medium containing tribenuron methyl, the dead tissues and cotyledons attached thereto were removed, the resistant tissue blocks were transferred to (obliquely inserted into) a B5 differentiation medium without selective agent (tribenuron methyl) (B5 salt 3.1 g/L, B5 vitamin, MES 1 g/L, sucrose 30 g/L, ZT 1 mg/L, agar 8 g/L, cephalosporin 150 mg/L, glutamic acid 50 mg/L, aspartic acid 50 mg/L, gibberellin 1 mg/L, auxin 1 mg/L, pH 5.6), and cultured for differentiation at a temperature of 24° C. and a photoperiod (light/dark) of 16:8 for 14-20 days, preferably 18 days. After the differentiation and growth of the above screened four resistant soybean tissue blocks for 14-20 days, […] of tribenuron methyl herbicide (95% tribenuron methyl wettable powder) was externally applied to per ml of the B5 differentiation medium, in which the diluted solution of tribenuron methyl herbicide was added dropwise to the B5 differentiation medium by a pipette, and the screening and culturing was continued at a temperature of 24° C. and a photoperiod (light/dark) of 16:8 until the resistant tissue blocks (transformed cells) regenerated into plants or the regenerated plants could survive.
In the present example, in the screening step of the above soybean meristem blocks and the plant regenerating step of the resistant soybean tissue blocks, the tribenuron methyl herbicide (95% tribenuron methyl wettable powder) was applied to per ml of the proliferation medium or the B5 differentiation medium, and the concentration examples of the diluted tribenuron methyl herbicide solution added dropwise to the proliferation medium or the B5 differentiation medium were shown in Table 1. The proliferated soybean meristem blocks were screened for tolerance to tribenuron methyl herbicide, and the specific information of the 12 treatments was shown in Table 2, and the screening results for each treatment were shown in Table 3, in which each treatment was repeated for 3 times.
The seedlings differentiated from the above 12 treatments were transferred to a B5 rooting medium (B5 salt 3.1 g/L, B5 vitamin, MES 1 g/L, sucrose 30 g/L, agar 8 g/L, cephalosporin 150 mg/L, indole-3-butyric acid (IBA) 1 mg/L, pH 5.6), cultured at 25° C. to a height of about 10 cm, and moved to a greenhouse to grow until fructification. The transgenic plants could be obtained by culturing at 26° C. for 16 hours and then at 20° C. for 8 hours per day in a greenhouse. […]

[1] = Treatment 1: 1 μg/ml proliferation medium, 3 μg/ml B5 differentiation medium
[2] = Treatment 1: 1 μg/ml proliferation medium, 3 μg/ml B5 differentiation medium, 50 initially germinated soybeans
[3] = Treatment 2: 1 μg/ml proliferation medium, 5 μg/ml B5 differentiation medium
[4] = Treatment 2: 1 μg/ml proliferation medium, 5 μg/ml B5 differentiation medium, 55 initially germinated soybeans
[5] = Treatment 3: 1 μg/ml proliferation medium, 7 μg/ml B5 differentiation medium
[6] = Treatment 3: 1 μg/ml proliferation medium, 7 μg/ml B5 differentiation medium, 75 initially germinated soybeans
[7] = Treatment 4: 3 μg/ml proliferation medium, 3 μg/ml B5 differentiation medium
[8] = Treatment 4: 3 μg/ml proliferation medium, 3 μg/ml B5 differentiation medium, 55 initially germinated soybeans
[9] = Treatment 5: 3 μg/ml proliferation medium, 5 μg/ml B5 differentiation medium
[10] = Treatment 5: 3 μg/ml proliferation medium, 5 μg/ml B5 differentiation medium, 60 initially germinated soybeans
[11] = Treatment 6: 3 μg/ml proliferation medium, 7 μg/ml B5 differentiation medium, 45 initially germinated soybeans
[12] = Treatment 7: 5 μg/ml proliferation medium, 3 μg/ml B5 differentiation medium
[13] = Treatment 7: 5 μg/ml proliferation medium, 3 μg/ml B5 differentiation medium, 50 initially germinated soybeans
[14] = Treatment 8: 5 μg/ml proliferation medium, 5 μg/ml B5 differentiation medium
[15] = Treatment 8: 5 μg/ml proliferation medium, 5 μg/ml B5 differentiation medium, 70 initially germinated soybeans
[16] = Treatment 9: 5 μg/ml proliferation medium, 7 μg/ml B5 differentiation medium
[17] = Treatment 9: 5 μg/ml proliferation medium, 7 μg/ml B5 differentiation medium, 43 initially germinated soybeans
[18] = Treatment 10: 7 μg/ml proliferation medium, 3 μg/ml B5 differentiation medium
[19] = Treatment 10: 7 μg/ml proliferation medium, 3 μg/ml B5 differentiation medium, 80 initially germinated soybeans
[20] = Treatment 11: 7 μg/ml proliferation medium, 5 μg/ml B5 differentiation medium
[21] = Treatment 11: 7 μg/ml proliferation medium, 5 μg/ml B5 differentiation medium, 75 initially germinated soybeans
[22] = Treatment 12: 7 μg/ml proliferation medium, 7 μg/ml B5 differentiation medium
[23] = Treatment 12: 7 μg/ml proliferation medium, 7 μg/ml B5 differentiation medium, 80 initially germinated soybeans

## COC(=O)c1ccccc1S(=O)(=O)NC(=O)N(C)c1nc(C)nc(OC)n1 [tribenuron methyl]
[1]
  Positive plant rate: 22.2%
  Transformation efficiency: 12.0%
[2]
  Number of positive plants: 6 plant
  Number of seedlings: 27 plant
[3]
  Positive plant rate: 25.0%
  Transformation efficiency: 10.9%
[4]
  Number of positive plants: 6 plant
  Number of seedlings: 24 plant
[5]
  Positive plant rate: 50.0%
  Transformation efficiency: 6.7%
[6]
  Number of positive plants: 5 plant
  Number of seedlings: 10 plant
[7]
  Positive plant rate: 20.0%
  Transformation efficiency: 9.1%
[8]
  Number of positive plants: 5 plant
  Number of seedlings: 25 plant
[9]
  Positive plant rate: 21.4%
  Transformation efficiency: 10.0%
[10]
  Number of positive plants: 6 plant
  Number of seedlings: 28 plant
Treatment 6: 3 μg/ml proliferation medium, 7 μg/ml B5 differentiation medium
  Positive plant rate: 47.8%
[11]
  Number of positive plants: 11 plant
  Number of seedlings: 23 plant
[12]
  Positive plant rate: 36.8%
  Transformation efficiency: 14.0%
[13]
  Number of positive plants: 7 plant
  Number of seedlings: 19 plant
[14]
  Positive plant rate: 25.0%
  Transformation efficiency: 5.7%
[15]
  Number of positive plants: 4 plant
  Number of seedlings: 16 plant
[16]
  Positive plant rate: 62.5%
  Transformation efficiency: 11.6%
[17]
  Number of positive plants: 5 plant
  Number of seedlings: 8 plant
[18]
  Positive plant rate: 60.0%
  Transformation efficiency: 11.3%
[19]
  Number of positive plants: 9 plant
  Number of seedlings: 15 plant
[20]
  Positive plant rate: 77.7%
  Transformation efficiency: 9.3%
[21]
  Number of positive plants: 7 plant
  Number of seedlings: 9 plant
[22]
  Positive plant rate: 80.0%
  Transformation efficiency: 5.0%
[23]
  Number of positive plants: 4 plant
  Number of seedlings: 5 plant
